How the values were obtained:
mouse TLR9 [1] = molecular target: T1, mouse TLR9 (Mus musculus, UniProt Q9EQU3); assay: Inhibition of mouse TLR9 in mouse acute challenge model (serum IL-12); format: in vivo; settings: 5 mg/Kg, intravenous or intra-peritoneal, serum IL-12 four hours after CpG DNA agonist
T1 construct: Balb/c mice (Charles River); host or cells: Balb/c mice, in vivo
T1 sequence (Q9EQU3 26-1032): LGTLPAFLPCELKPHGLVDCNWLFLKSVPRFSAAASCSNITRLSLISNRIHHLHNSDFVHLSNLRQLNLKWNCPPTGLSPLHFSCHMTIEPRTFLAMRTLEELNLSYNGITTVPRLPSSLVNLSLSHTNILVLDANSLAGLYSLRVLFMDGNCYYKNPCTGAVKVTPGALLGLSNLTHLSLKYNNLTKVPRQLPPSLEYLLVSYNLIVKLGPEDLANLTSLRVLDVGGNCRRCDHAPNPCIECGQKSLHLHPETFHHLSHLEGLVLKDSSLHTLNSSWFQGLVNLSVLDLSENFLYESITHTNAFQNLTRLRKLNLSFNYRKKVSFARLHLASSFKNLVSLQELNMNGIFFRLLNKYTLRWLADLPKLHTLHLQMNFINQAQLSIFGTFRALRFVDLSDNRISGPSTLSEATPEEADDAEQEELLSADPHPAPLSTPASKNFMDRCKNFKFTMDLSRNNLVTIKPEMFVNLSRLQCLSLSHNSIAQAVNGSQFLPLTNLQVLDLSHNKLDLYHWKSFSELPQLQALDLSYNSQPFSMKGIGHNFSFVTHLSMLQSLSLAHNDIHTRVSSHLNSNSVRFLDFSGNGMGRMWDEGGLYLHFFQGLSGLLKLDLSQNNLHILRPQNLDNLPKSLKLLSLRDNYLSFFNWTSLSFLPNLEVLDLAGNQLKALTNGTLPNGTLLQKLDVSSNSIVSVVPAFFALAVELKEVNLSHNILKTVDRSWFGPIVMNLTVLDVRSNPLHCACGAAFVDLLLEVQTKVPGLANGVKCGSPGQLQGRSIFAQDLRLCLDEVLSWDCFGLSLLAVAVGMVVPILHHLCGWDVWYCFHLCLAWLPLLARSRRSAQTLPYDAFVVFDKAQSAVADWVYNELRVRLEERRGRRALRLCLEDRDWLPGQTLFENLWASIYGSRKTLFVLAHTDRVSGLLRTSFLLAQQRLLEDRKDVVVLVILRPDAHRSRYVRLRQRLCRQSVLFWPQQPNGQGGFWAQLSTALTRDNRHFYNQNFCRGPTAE
Experimental: Example B4—Inhibition of Mouse TLR9 in Mouse Acute Challenge Model
(§1) When administered a CpG-containing DNA oligonucleotide, mice respond in an acute manner with release of cytokines into the peripheral blood within 6 hours. The addition of an inhibitor against TLR9 will attenuate the response to the DNA oligonucleotide agonist, which can be measured through a reduction in serum cytokines.
(§2) Balb/c mice (Charles River). TLR9 agonist 1018 ISS, CpG-containing DNA oligonucleotide. Mouse interleukin (IL)-12p40 ELISA kit (BD Pharmingen Cat. No. 551219 and 554476).
Mice were injected by the intravenous or intra-peritoneal routes with test compound at 5 mg/kg. Following injection of test compound, mice were injected with a TLR9 agonist (a CpG-containing DNA oligonucleotide) by the intra-peritoneal route to a final dose of approximately 2.5 mg/kg. Four hours following administration of the DNA oligonucleotide, blood was collected and processed to serum. The serum was tested for the presence of IL-12 using an ELISA kit. The amount of IL-12 produced is a reflection of the amount of TLR9-dependent receptor activity.

mouse TLR9 [2] = molecular target: T1, mouse TLR9; assay: Inhibition of mouse TLR9 in mouse acute challenge model over time (serum IL-12); format: in vivo; settings: 5 mg/Kg intra-peritoneal, serum IL-12 two, four and twenty-four hours after agonist
Experimental: Example B4-a—Inhibition of Mouse TLR9 in Mouse Acute Challenge Model Over Time
as §1, §2
Mice were injected by the intra-peritoneal dosing route with test compound at 5 mg/kg. Following injection of test compound, mice were injected with a TLR9 agonist (a CpG-containing DNA oligonucleotide) by the intra-peritoneal route to a final dose of approximately 2.5 mg/kg. Two, four and twenty-four hours following administration of the DNA oligonucleotide, blood was collected from mice and processed to serum. The serum was tested for the presence of IL-12 using an ELISA kit. The amount of IL-12 produced is a reflection of the amount of TLR9-dependent receptor activity.

Compound: Cc1ccc(-n2nc3c(N4CCC(C(=O)NCCCN(C)C)CC4)nnc(C)c3c2C)cc1 [Compound No. 5, 1-(3,4-dimethyl-2-(p-tolyl)-2H-pyrazolo[3,4-d]pyridazin-7-yl)-N-(3-(dimethylamino)propyl)piperidine-4-carboxamide]
- inhibition of TLR9 activity in mice (FIG. 1) (mouse TLR9 [1]): inhibition of TLR9 activity
- inhibition of TLR9 activity in mice over time (FIG. 2) (mouse TLR9 [2]): inhibition of TLR9 activity
